According to patent US7915291B2, “Hepatitis C virus inhibitors” (Bristol-Myers Squibb Company, priority 2002, dated 2011):

Assays:
[1] = biological target: HCV NS3/4A protease complex, BMS strain (UniProt P27958, C1454S/C1711G, species not given/STRAIN_BMS); experiment: Recombinant HCV NS3/4A protease complex FRET peptide assay (BMS strain); format: biochemical, HCV genotype 1a; settings: NS3/4A BMS strain; read-out: IC50 range
Summary of the method: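 Recombinant BMS-strain NS3/4A (His-tagged NS4A with three-lysine tail, E. coli) at 2-3 nM preincubated 1 min with compound, then 2 μM ester-linked NS4A/NS4B-based FRET peptide added. Fluorescence followed in real time ~15 min at 25° C. Percent inhibition from slope of linear fluorescence change versus no-compound control.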

[2] = test system: HCV replicon in Huh7 cells; experiment: HCV replicon cell-based assay; design: species or system HCV strain 1B; settings: Hepatitis C virus, Huh-7; HCV replicon, Huh7 cells; read-out: EC50 range

Structure (SMILES)	IC50 [1] [nM]	EC50 [2] [nM]
C=C[C@@H]1C[C@]1(NC(=O)[C@@H]1C[C@@H](Oc2ncc(C)c3ccccc23)CN1C(=O)[C@@H](NC(=O)OC(C)(C)C)C(C)(C)C)C(=O)NS(=O)(=O)C1CC1 [Compound 250]	< 100	< 100
C=C[C@@H]1C[C@]1(NC(=O)[C@@H]1C[C@@H](Oc2ccnc(-c3cccs3)c2)CN1C(=O)[C@@H](NC(=O)OC1CCCC1)C(C)(C)C)C(=O)NS(=O)(=O)C1CC1 [Compound 429]	< 100	< 100
C=C[C@@H]1C[C@]1(NC(=O)[C@@H]1C[C@@H](Oc2nccc3cc(OC)ccc23)CN1C(=O)[C@@H](NC(=O)N[C@@H](C(=O)OC)C(C)C)C(C)(C)C)C(=O)NS(=O)(=O)C1CC1 [Compound 142]	< 100	< 100
C=C[C@@H]1C[C@]1(NC(=O)[C@@H]1C[C@@H](Oc2nccc3cc(OC)ccc23)CN1C(=O)[C@@H](NC(=O)OC(C)(C)C)[C@@H](C)OCc1ccccc1)C(=O)NS(=O)(=O)C1CC1 [Compound 110]	< 100	100 to 1000
C=C[C@@H]1C[C@]1(NC(=O)[C@@H]1C[C@@H](Oc2nc(-c3cc(OC)no3)cc3cc(OC)ccc23)CN1C(=O)[C@@H](NC(=O)OC(C)(C)C)C(C)(C)C)C(=O)NS(=O)(=O)C1CC1 [Compound 38]	< 100	< 100
C=C[C@@H]1C[C@]1(NC(=O)[C@@H]1CC(Oc2nccc3cc(OC)ccc23)CN1C(=O)[C@@H](NC(=O)OC(C)(C)C)C(C)(C)O)C(=O)NS(=O)(=O)C1CC1 (some centres unmarked) [Compound 89]	< 100	< 100
C=CC1C[C@]1(NC(=O)[C@@H]1C[C@@H](Oc2nc3ccoc3c3ccccc23)CN1C(=O)[C@@H](NC(=O)OC(C)(C)C)C(C)(C)C)C(=O)NS(=O)(=O)C1CC1 (stereo partly drawn) [Compound 220, BOCNH-P3(L-t-BuGly)-P2[(4R)-(1-oxa-4-aza-cyclopenta[α]naphthalen-5-yloxy)-S-proline]-P1(1R,2S VinylAcca)-CONHSO2Cyclopropane]	< 100	< 100
C=C[C@@H]1C[C@]1(NC(=O)[C@@H]1C[C@@H](Oc2nccc3ccccc23)CN1C(=O)[C@@H](NC(=O)OC(C)(C)C)C(C)(C)C)C(=O)NS(=O)(=O)C1CC1 [Compound 23]	< 100	< 100
C=C[C@@H]1CC1(NC(=O)[C@@H]1CC(Oc2nccc3cc(OC)ccc23)CN1C(=O)[C@@H](NC(=O)NC1CCCC1)C(C)(C)C)C(=O)NS(=O)(=O)C1CC1 (some centres unmarked) [Compound 75]	< 100	< 100
C=CC1C[C@]1(NC(=O)[C@@H]1C[C@@H](Oc2nccc3c(SCCC)c(OCC)ccc23)CN1C(=O)[C@@H](NC(=O)OC(C)(C)C)C(C)(C)C)C(=O)NS(=O)(=O)C1CC1 (stereo partly drawn) [Compound 206, BOCNH-P3(L-t-BuGly)-P2[(4R)-(6-ethoxy-5propylthio -isoquinoline-1-oxo)-S-proline]-P1(1R,2S VinylAcca)-CONHSO2Cyclopropane]	< 100	< 100
C=CC1C[C@]1(NC(=O)[C@@H]1C[C@@H](Oc2nc(-c3ccc(N(CC)CC)cc3)cc3cc(OC)ccc23)CN1C(=O)[C@@H](NC(=O)OC(C)(C)C)C(C)(C)C)C(=O)NS(=O)(=O)C1CC1 (some centres unmarked) [Compound 327]	< 100	< 100
C=C[C@@H]1C[C@]1(NC(=O)[C@@H]1CC(Oc2nccc3cc(OC)ccc23)CN1C(=O)[C@@H](NC(=O)NC(C)(C)CC(C)(C)C)C(C)(C)C)C(=O)NS(=O)(=O)C1CC1 (some centres unmarked) [Compound 81]	< 100	100 to 1000
C=C[C@@H]1C[C@]1(NC(=O)[C@@H]1C[C@@H](Oc2nccc3c4c(ccc23)OCC4)CN1C(=O)[C@@H](NC(=O)OC(C)(C)C)C(C)(C)C)C(=O)NS(=O)(=O)C1CC1 [Compound 267]	< 100	< 100
C=C[C@@H]1C[C@]1(NC(=O)[C@@H]1C[C@@H](Oc2nccc3c(N4CCOCC4)cccc23)CN1C(=O)[C@@H](NC(=O)OC(C)(C)C)C(C)(C)C)C(=O)NS(=O)(=O)C1CC1 [Compound 271]	< 100	100 to 1000
CC[C@@H]1C[C@]1(NC(=O)[C@@H]1C[C@@H](Oc2nccc3c(C)cccc23)CN1C(=O)[C@@H](NC(=O)OC(C)(C)C)C(C)(C)C)C(=O)NS(=O)(=O)C1CC1 [Compound 293]	< 100	100 to 1000
C=C[C@@H]1C[C@]1(NC(=O)[C@@H]1C[C@@H](Oc2nc(-c3ccc(N(C)C)cc3)cc3ccccc23)CN1C(=O)[C@@H](NC(=O)OC(C)(C)C)C(C)(C)C)C(=O)NS(=O)(=O)C1CC1 [Compound 28]	< 100	< 100
C=CC1C[C@]1(NC(=O)[C@@H]1C[C@@H](Oc2nnc(O)c3ccccc23)CN1C(=O)[C@@H](NC(=O)OC(C)(C)C)C(C)(C)C)C(=O)NS(=O)(=O)C1CC1 (stereo partly drawn) [Compound 202, BOCNH-P3(L-t-BuGly)-P2[(4R)-(4-hydroxyphthalazine-1-oxo)-S -proline]P1(1R,2S VinylAcca)-CONHSO2Cyclopropane]	< 100	1000 to 10000

Structure (SMILES)	IC50 [1] [nM]	EC50 [2] [nM]
C=C[C@@H]1C[C@]1(NC(=O)[C@@H]1C[C@@H](Oc2nccc3c2ccc2ccoc23)CN1C(=O)[C@@H](NC(=O)OC(C)(C)C)C(C)(C)C)C(=O)NS(=O)(=O)C1CC1 [Compound 266]	< 100	< 100
C=C[C@@H]1C[C@]1(NC(=O)[C@@H]1C[C@@H](Oc2nc(-c3ncc(OC)o3)cc3cc(OC)ccc23)CN1C(=O)[C@@H](NC(=O)OC(C)(C)C)C(C)(C)C)C(=O)NS(=O)(=O)C1CC1 [Compound 39]	< 100	< 100
C=C[C@@H]1C[C@]1(NC(=O)[C@@H]1C[C@@H](Oc2nccc3cc(OC)ccc23)CN1C(=O)[C@@H](NC(=O)OC(C)(C)C)[C@@H](C)OC)C(=O)NS(=O)(=O)C1CC1 [Compound 92]	< 100	< 100
C=C[C@@H]1C[C@]1(NC(=O)[C@@H]1C[C@@H](Oc2nccc3cc(OC)ccc23)CN1C(=O)[C@@H](NC(=O)OC(C)C)C(C)(C)C)C(=O)NS(=O)(=O)C1CC1 [Compound 17]	< 100	< 100
C=CC1C[C@]1(NC(=O)[C@@H]1C[C@@H](Oc2cc(C(F)(F)F)nc3c(OC(F)(F)F)cccc23)CN1C(=O)[C@@H](NC(=O)OC(C)(C)C)C(C)(C)C)C(=O)NS(=O)(=O)C1CC1 (stereo partly drawn) [Compound 182, BOCNH-P3(L-tert-BuGly)-P2[(4R)-(2-trifluoromethyl, 8-trifluoromethoxy quinolin-4-oxo)-S-proline]-P1(1R,2S Vinyl Acca)-CONHSO2-Cyclopropane]	< 100	100 to 1000
C=CC1C[C@]1(NC(=O)[C@@H]1C[C@@H](Oc2nccc3cc(CC)ccc23)CN1C(=O)[C@@H](NC(=O)OC(C)(C)C)C(C)(C)C)C(=O)NS(=O)(=O)C1CC1 (stereo partly drawn) [Compound 189, BOCNH-P3(L-tert-BuGly)-P2[(4R)-(6-ethyl isoquinolin-1-oxo)-S -proline]-P1(1R,2S Vinyl Acca)-CONHSO2-Cyclopropane]	< 100	100 to 1000
C=C[C@@H]1C[C@]1(NC(=O)[C@@H]1C[C@@H](Oc2cc(-c3cccs3)ncn2)CN1C(=O)[C@@H](NC(=O)OC(C)(C)C)C(C)(C)C)C(=O)NS(=O)(=O)C1CC1 [Compound 412]	< 100	< 100
C=CC1C[C@]1(NC(=O)[C@@H]1C[C@@H](Oc2nc(-c3ccccc3N(C)C)cc3cc(OC)ccc23)CN1C(=O)[C@@H](NC(=O)OC(C)(C)C)C(C)(C)C)C(=O)NS(=O)(=O)C1CC1 (some centres unmarked) [Compound 329]	< 100	< 100
CC[C@@H]1C[C@]1(NC(=O)[C@@H]1C[C@@H](Oc2nccc3cc(OC)ccc23)CN1C(=O)[C@@H](NC(=O)OC(C)(C)C)C(C)(C)C)C(=O)NS(=O)(=O)C1CC1 [Compound 14]	< 100	< 100
C=C[C@@H]1C[C@]1(NC(=O)[C@@H]1CC(Oc2nccc3cc(OC)ccc23)CN1C(=O)[C@@H](NC(=O)COC)C(C)(C)C)C(=O)NS(=O)(=O)C1CC1 (some centres unmarked) [Compound 59]	< 100	100 to 1000
C=C[C@@H]1C[C@]1(NC(=O)C1C[C@@H](Oc2nc(-c3ccccc3)nc3ccc(OC)cc23)CN1C(=O)[C@@H](N)C(C)(C)C)C(=O)NS(=O)(=O)C1CC1 (some centres unmarked) [Compound 50]	100 to 1000	1000 to 10000
C=C[C@@H]1C[C@]1(NC(=O)[C@@H]1C[C@@H](Oc2nccc3cc(OC)c(Cl)cc23)CN1C(=O)[C@@H](NC(=O)OC(C)(C)C)C(C)(C)C)C(=O)NS(=O)(=O)C1CC1 [Compound 273]	< 100	< 100
C=CC1C[C@]1(NC(=O)[C@@H]1C[C@@H](Oc2nnc(OCC)c3ccccc23)CN1C(=O)[C@@H](NC(=O)OC(C)(C)C)C(C)(C)C)C(=O)NS(=O)(=O)C1CC1 (stereo partly drawn) [Compound 200, BOCNH-P3(L-t-BuGly)-P2-[(4R)-(4-ethoxyphthalazine-1-oxo)-S-proline]-P1(1R,2S VinylAcca)-CONHSO2Cyclopropane]	< 100	< 100
C=C[C@@H]1C[C@]1(NC(=O)[C@@H]1C[C@@H](Oc2nccc3cccc(OC)c23)CN1C(=O)[C@@H](NC(=O)OC(C)(C)C)C(C)(C)C)C(=O)NS(=O)(=O)C1CC1 [Compound 264]	100 to 1000	1000 to 10000
C=C[C@@H]1C[C@]1(NC(=O)[C@@H]1C[C@@H](Oc2cc(C3CC3)nc3cc(OC)ccc23)CN1C(=O)[C@@H](NC(=O)OC(C)(C)C)C(C)(C)C)C(=O)NS(=O)(=O)C1CC1 [Compound 373]	< 100	< 100
C=CC1C[C@]1(NC(=O)[C@@H]1C[C@@H](Oc2nccc3sccc23)CN1C(=O)[C@@H](NC(=O)OC(C)(C)C)C(C)(C)C)C(=O)NS(=O)(=O)C1CC1 (some centres unmarked) [Compound 235]	< 100	100 to 1000
C=C[C@@H]1C[C@]1(NC(=O)[C@@H]1C[C@@H](Oc2nccc3cc(OC)ccc23)CN1C(=O)[C@@H](NC(=O)NC(C)(C)CC)[C@H](C)OC)C(=O)NS(=O)(=O)C1CC1 [Compound 102]	< 100	< 100
